Data from PMC8151276, “An Integrated Approach toward NanoBRET Tracers for Analysis of GPCR Ligand Engagement” (Molecules, 2021).

Assays:
[1] = biological target: T1, MC5R (Homo sapiens, UniProt P33032); experiment: NanoBRET screen HiBiT-MC5R in HEK293; format: binding; details: MC5R; 0.1μM tracer
T1 construct: purchased Promega (in-house HiBiT-GPCR construct library, NanoBRET)
Experimental: (§1) Each tracer candidate was screened across the entire library of HiBiT-GPCR constructs using NanoBRET as the detection modality. As depicted in Figure 4A, the specificity of interactions was evaluated through decrease in BRET due to competitive displacement of a bound tracer by excess parental compound. Each tracer was analyzed for binding to each HiBiT-GPCR fusion in the absence and in the presence of competing parental compound. Briefly, HEK293 cells were transfected with HiBiT-GPCR constructs diluted into promoterless DNA to reduce expression and maximize translocation to the cell surface. Each tracer candidate was then screened at concentrations of 1 μM and 0.1 μM across cells expressing these fusions. Cells were treated for 1.5 h with tracer either alone or in the presence of 20 μM competing parental compound (i.e., control). BRET was measured upon addition of purified LgBiT and subsequent complementation with HiBiT genetically fused to a GPCR. The specificity of interactions was assessed through a decrease in BRET signal due to competitive displacement of the bound tracer. To further gauge the robustness of these interactions, the fold response over the control (i.e., BRETtracer/BRETcontrol) was calculated. We chose a 1.5-fold response, which translates to ≥7-fold signal over noise as the minimal threshold required to score an interaction as positive.
(§2) HiBiT-GPCR DNA constructs were diluted in 10 mM Tris pH 8 to a final concentration of 0.01 μg/μL, arrayed in 96-well plates and stored at −20 °C. For transfection, HEK293 cells were suspended in Opti-MEM (without phenol red) supplemented with 2% fetal bovine serum (Seradigm) and 100 units/mL penicillin–streptomycin (Gibco) at a final concentration of 220,000 cells/mL and dispensed into white 96-well plates at 90 μL/well. Subsequent transfections and screens were carried using an Agilent Bravo Automated Liquid Handling Platform. First, the 96-well HiBiT DNA arrays were diluted 25-fold in Opti-MEM (without serum or phenol red) to a final concentration of 0.0004 μg/μL and 20 μL of the diluted DNAs were transferred into new 96-well plates. Next, promoterless carrier DNA (1 μg/μL) was diluted 25-fold (0.04 μg/μL) and then dispensed into the diluted arrays at 20 μL/well. Following brief mixing, Viafect transfection reagent (Promega) diluted 16-fold into Opti-MEM was dispensed into the plates at 40 μL/well. After mixing by pipetting, plates were incubated for 10 min on the pipetting station deck. The DNA-transfection reagent complexes were then added to plates containing cells. To facilitate the screen, 10 μL of DNA-transfection reagent complexes were added in duplicates to the top 4 and bottom 4 rows, resulting in two identical 48-well arrays per plate. Plates with transfected cells were incubated for 18–20 h at 37 °C/5% CO2. A screen of each tracer across the entire library using two different concentrations requires duplicate plates of transfected cells. Depending on the number of tracers being screened, transfections can be scaled up using the same ratios. The next day, for each tracer, four 20× screening solutions in tracer dilution buffer (Promega) were prepared: two duplicates at final concentration of 20 μM and two duplicates at a final concentration of 2 μM. […] The four resulting solutions were diluted 4-fold in Opti-MEM without serum or phenol red to generate 5× solutions (5 µM and 0.5 µM tracer +/− 100 μM competing compound). To screen the library, a BioTek MultiFlo FX liquid dispenser was used to dispense 22.5 µL of tracer solution to the top 4 rows and 22.5 µL tracer + competing compound solution to the 4 bottom rows. Plates were briefly mixed on an orbital shaker and incubated for 1.5 h at room temperature. […] Plates were briefly mixed on an orbital shaker and incubated for 15 min to allow complementation.

[2] = biological target: T2, CHRM2 (Homo sapiens, UniProt P08172); experiment: NanoBRET screen HiBiT-CHRM2 in HEK293; format: binding; details: CHRM2
T2 construct: purchased Promega (in-house HiBiT-GPCR construct library, NanoBRET)
T2 sequence (P08172 1-466): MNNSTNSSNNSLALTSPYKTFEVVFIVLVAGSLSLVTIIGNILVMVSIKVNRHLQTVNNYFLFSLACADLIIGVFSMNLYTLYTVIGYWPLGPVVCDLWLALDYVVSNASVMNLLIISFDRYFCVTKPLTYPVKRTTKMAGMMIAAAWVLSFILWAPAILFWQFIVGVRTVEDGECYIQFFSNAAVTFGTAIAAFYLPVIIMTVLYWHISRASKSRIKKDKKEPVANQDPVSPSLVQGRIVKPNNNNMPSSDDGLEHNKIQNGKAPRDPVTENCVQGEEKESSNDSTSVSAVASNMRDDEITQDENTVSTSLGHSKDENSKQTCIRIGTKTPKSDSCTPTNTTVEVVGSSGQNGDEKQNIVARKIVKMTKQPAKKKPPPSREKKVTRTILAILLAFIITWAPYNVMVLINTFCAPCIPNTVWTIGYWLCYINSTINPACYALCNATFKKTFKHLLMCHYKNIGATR
Experimental: as §1, §2

T1 sequence (P33032 whole entry): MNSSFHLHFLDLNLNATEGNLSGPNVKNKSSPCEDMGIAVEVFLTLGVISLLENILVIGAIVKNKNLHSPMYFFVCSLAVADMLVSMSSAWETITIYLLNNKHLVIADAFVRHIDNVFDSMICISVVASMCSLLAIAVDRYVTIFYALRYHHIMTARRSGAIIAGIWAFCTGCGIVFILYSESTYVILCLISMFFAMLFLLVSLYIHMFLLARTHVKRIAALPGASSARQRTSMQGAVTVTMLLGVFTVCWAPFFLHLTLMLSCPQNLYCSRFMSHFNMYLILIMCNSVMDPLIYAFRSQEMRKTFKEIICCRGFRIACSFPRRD

NanoBRET Fold Response [1]: 1.04 | NanoBRET Fold Response ([2]; 0.1μM tracer): 1.50 | NanoBRET Fold Response ([2]; 1μM tracer): 1.49
SMILES: O=C(CCOCCOCCOCCOCCNC(=O)CCc1ccc2n1[B-](F)(F)[N+]1=C(c3ccc[nH]3)C=CC1=C2)NCCCN1CCN(C2=Nc3cc(Cl)ccc3Nc3ccccc32)CC1 [Clozapine-a-2-NB590]
